Test results published in PubChem BioAssay (NCI).
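Test compounds were applied to cells in 96-well plates for 48 hours at 5 doses. TGI marks complete inhibition of growth.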

Assays:
Assay in all cases: NCI tumour cell line growth inhibition, 48 h
M14 melanoma = tested on: M14 melanoma
KM20L2 colon = tested on: KM20L2 colon
XF 498 CNS = tested on: XF 498 CNS
HOP-62 NSCLC = tested on: HOP-62 NSCLC
U251 CNS = tested on: U251 CNS
SN12C renal = tested on: SN12C renal
MOLT-4 leukemia = tested on: MOLT-4 leukemia
NCI-H460 lung = tested on: NCI-H460 lung
RXF 393 renal = tested on: RXF 393 renal
EKVX NSCLC = tested on: EKVX NSCLC
M19-MEL melanoma = tested on: M19-MEL melanoma
SF-268 CNS = tested on: SF-268 CNS
SK-OV-3 ovarian = tested on: SK-OV-3 ovarian
HOP-18 NSCLC = tested on: HOP-18 NSCLC
SF-295 CNS = tested on: SF-295 CNS
HT29 colon = tested on: HT29 colon
LOX IMVI melanoma = tested on: LOX IMVI melanoma
DLD-1 colon = tested on: DLD-1 colon
HCC-2998 colon = tested on: HCC-2998 colon
MALME-3M melanoma = tested on: MALME-3M melanoma
SK-MEL-28 melanoma = tested on: SK-MEL-28 melanoma
SK-MEL-2 melanoma = tested on: SK-MEL-2 melanoma
NCI-H23 lung = tested on: NCI-H23 lung
K-562 leukemia = tested on: K-562 leukemia
RPMI-8226 leukemia = tested on: RPMI-8226 leukemia
IGROV1 ovarian = tested on: IGROV1 ovarian
NCI-H522 lung = tested on: NCI-H522 lung
DMS 273 small cell lung = tested on: DMS 273 small cell lung
RXF-631 renal = tested on: RXF-631 renal
SNB-75 CNS = tested on: SNB-75 CNS
SR leukemia = tested on: SR leukemia
KM12 colon = tested on: KM12 colon
SW-620 colon = tested on: SW-620 colon
LXFL 529 NSCLC = tested on: LXFL 529 NSCLC
786-0 renal = tested on: 786-0 renal
DMS 114 small cell lung = tested on: DMS 114 small cell lung
SNB-19 CNS = tested on: SNB-19 CNS
A549 NSCLC = tested on: A549 NSCLC
A498 renal = tested on: A498 renal
SK-MEL-5 melanoma = tested on: SK-MEL-5 melanoma
COLO 205 colon = tested on: COLO 205 colon
CAKI-1 renal = tested on: CAKI-1 renal
UO-31 renal = tested on: UO-31 renal
SNB-78 CNS = tested on: SNB-78 CNS
ACHN renal = tested on: ACHN renal
OVCAR-3 ovarian = tested on: OVCAR-3 ovarian
NCI-H226 lung = tested on: NCI-H226 lung
UACC-257 melanoma = tested on: UACC-257 melanoma
SF-539 CNS = tested on: SF-539 CNS
OVCAR-4 ovarian = tested on: OVCAR-4 ovarian
OVCAR-8 ovarian = tested on: OVCAR-8 ovarian
TK-10 renal = tested on: TK-10 renal
CCRF-CEM leukemia = tested on: CCRF-CEM leukemia
OVCAR-5 ovarian = tested on: OVCAR-5 ovarian
HL-60(TB) leukemia = tested on: HL-60(TB) leukemia
UACC-62 melanoma = tested on: UACC-62 melanoma
HOP-92 NSCLC = tested on: HOP-92 NSCLC
HCT-116 colon = tested on: HCT-116 colon

Measured: TGI

NC1(C(=O)O)CCC(C(=O)O)CC1 (stereo not drawn)
> 100 µM: all assays above
